Experimental data from patent US20040105860A1, “Cell modulation using a cytoskeletal protein” (priority 2002, published 2004).

Columns and labels:
[1] = tested on: CDE-CHR elements of the cyclin A promoter; test: EMSA of EC nuclear extracts with CDE-CHR / CHR oligonucleotides; assay type: cell-based, Bovine
cyclin A mRNA = test: Ribonuclease protection assay (RPA) of cyclin A mRNA expression in EC; assay type: cell-based, Bovine; conditions: pre-treatment of EC with Y27632
Protocol: FIGS. 1A-D are explained in more detail as follows. Synchronized ECs were serum stimulated in the presence or absence of TNF for indicated times. Total cellular RNA was isolated and was analyzed by RPA for cyclin A, cyclin B and cyclin D1 expression. A representative autoradiograph is shown (FIG. 1A). mRNA expression of cyclins was corrected to that of GAPDH and quantified by densitometric analysis (FIGS. 1B-D). Data represent average of 3 similar experiments.
FIGS. 12A-C are explained in more detail as follows. (FIG. 12A) Representative PCR gel photograph showing amplification of 200 bp cyclin A promoter emcompassing CHR elements from ant-ezrin antibody immunoprecipitated chromatin. (FIG. 12B) BAECs co-transfected with cyclin A promoter-reporter construct and either wt or dnEzrin constructs and cultured in presence or absence of TNF for 24 h before were analyzed for luciferase activity. Bar graph represents average promoter activity from 3 similar experiments (*p<0.01). (FIG. 12C) Total RNA from empty vector wt or dnEzrin transfected cells under control or TNF-treatment conditions was evaluated for cyclin A mRNA expression by ribonuclease protection assays. Representative autoradiograph is shown.
3. […]

EC proliferation = test: Thymidine uptake assay, EC proliferation; assay type: cell-based, Bovine
Protocol: Having documented TNF-induced nuclear translocation and the ability of ezrin to bind to cyclin A CHR elements, the functional consequences of TNF-mediated ezrin modulation in EC was determined. To evaluate the effect of ezrin over-expression in the presence of TNF on cell proliferation, EC were transiently transfected with either wtEzrin or dnEzrin expression vectors. Cells were treated or not with TNF and BrdU (50 μg/mL) was added to all cultures for 6 hours. […] Tritiated thymidine uptake assays were performed as an independent measure of cell proliferation in similarly transfected and treated cells and corroborated the findings of BrdU incorporation (FIG. 11C).
FIGS. 11A-E are explained in more detail as follows. Quiescent BAECs transiently transfected with empty vector, wild type and dominant negative ezrin were cultured in the absence (control) or presence of 20 ng/mL TNF for 24 hrs. Cells were labeled with BrdU (50 μg/mL) for last 6 hrs of culture. […] BrdU positive cells were counted in at least 6 different visual fields. […]
To provide further evidence that the improvement in EC function attained by inhibition of ROCK-2 was mediated by ezrin, we performed rescue experiments. EC transiently transfected with wtEzrin and treated with TNF were co-treated with increasing doses of Y27632 and cell proliferation was determined by thymidine incorporation.

ezrin phosphorylation = test: Western blot for phospho-ezrin in EC lysates; assay type: cell-based, Bovine; conditions: Y27632 20 μM, all experimental time points
RhoA kinase (ROCK-2) = RhoA kinase (ROCK-2) (Bos taurus, UniProt Q28021); test: Western blot for ROCK-2 in EC lysates; assay type: cell-based, Bovine; conditions: co-treatment with Y27632 20 micromolar at the time of TNF exposure
cyclin A CHR elements = test: South-western analysis and UV cross-linking of nuclear proteins with CDE-mCHR or mCDE-CHR probes; assay type: cell-based, Bovine; conditions: cycloheximide 5 μg/mL along with TNF
Description: Nuclear proteins from asynchronously growing BAEC with or without TNF were probed with ^32P-labeled CDE-mCHR or mCDE-CHR oligonucleotides.
To confirm that 84 kDa protein in TNF treated extracts identified in FIGS. 8A-B, does bind to CHR elements, we performed UV cross-linking experiments. EMSA reactions were assembled as before followed by UV cross-linking. The reactions were then boiled in SDS loading buffer and resolved on 12% SDS-PAGE. In reactions probed with CDE-mCHR the 35-kDa protein seen before was observed again (FIGS. 8C-D). In reactions probed with mCDE-CHR probe, the previously identified (FIGS. 8A-B) 39-kDa protein was found cross-linked to oligonucleotide. Similarly, the 84-kDa protein from TNF treated extract cross-linked with mCDE-CHR probe, further confirming the southwestern results.
FIGS. 8A-E are explained in more detail as follows. FIGS. 8A-B. Representative autoradiograph of south-western analysis. Nuclear proteins from asynchronously growing EC with or with out TNF treatment were size fractionated on a 12% SDS-PAGE gel, transferred to PVDF membrane and renatured. Membranes were then incubated with radio-labeled CDE-mCHR or mCDE-CHR oligonucleotide. Membranes were washed, air dried and autoradiographed. […]

[2] = tested on: CHR oligonucleotides (cyclin A promoter); test: EMSA of recombinant protein with CHR oligonucleotides; assay type: binding; conditions: recombinant protein 1 μg
Description: Nuclear extracts from control and TNF-treated EC were mixed with biotin-labeled CHR oligonucleotides and the bound proteins were captured on avidin-agarose beads. Eluted proteins from beads were subjected to Western blot analysis for ezrin. […] Specificity of CHR-ezrin binding was further confirmed by EMSA assays using recombinant-ezrin protein (GST-ezrin). […] We next evaluated the effect of TNF-induced ezrin binding to cyclin A-CHR by dominant-negative ezrin over-expression. EC were transiently transfected with wild-type (wtEzrin) and dominant negative (dnEzrin) ezrin expression vector. […] That TNF-induced modulation of ezrin up-regulates CHR-binding activity was further evident from ezrin immunodepletion experiments. Endogenous ezrin was immunodepleted from control and TNF-treated nuclear extracts by treating extracts with anti-ezrin antibodies over 5 rounds. Immunodepleted extracts were then analyzed by EMSA for CHR-binding activity.
FIGS. 9A-D are explained in more detail as follows. […] Eluted proteins from beads were analyzed for ezrin protein in western blots. […] (FIG. 9C) Nuclear extracts from control and TNF-treated BAECs, transfected with wild type or dominant negative ezrin, were evaluated CHR binding activity in EMSAs. […] Depleted extracts alone or depleted extracts from TNF treated cells reconstituted with GST-ezrin were then analyzed for CHR binding activity. […]

RhoA kinase (ROCK-2), sequence (Q28021 whole entry): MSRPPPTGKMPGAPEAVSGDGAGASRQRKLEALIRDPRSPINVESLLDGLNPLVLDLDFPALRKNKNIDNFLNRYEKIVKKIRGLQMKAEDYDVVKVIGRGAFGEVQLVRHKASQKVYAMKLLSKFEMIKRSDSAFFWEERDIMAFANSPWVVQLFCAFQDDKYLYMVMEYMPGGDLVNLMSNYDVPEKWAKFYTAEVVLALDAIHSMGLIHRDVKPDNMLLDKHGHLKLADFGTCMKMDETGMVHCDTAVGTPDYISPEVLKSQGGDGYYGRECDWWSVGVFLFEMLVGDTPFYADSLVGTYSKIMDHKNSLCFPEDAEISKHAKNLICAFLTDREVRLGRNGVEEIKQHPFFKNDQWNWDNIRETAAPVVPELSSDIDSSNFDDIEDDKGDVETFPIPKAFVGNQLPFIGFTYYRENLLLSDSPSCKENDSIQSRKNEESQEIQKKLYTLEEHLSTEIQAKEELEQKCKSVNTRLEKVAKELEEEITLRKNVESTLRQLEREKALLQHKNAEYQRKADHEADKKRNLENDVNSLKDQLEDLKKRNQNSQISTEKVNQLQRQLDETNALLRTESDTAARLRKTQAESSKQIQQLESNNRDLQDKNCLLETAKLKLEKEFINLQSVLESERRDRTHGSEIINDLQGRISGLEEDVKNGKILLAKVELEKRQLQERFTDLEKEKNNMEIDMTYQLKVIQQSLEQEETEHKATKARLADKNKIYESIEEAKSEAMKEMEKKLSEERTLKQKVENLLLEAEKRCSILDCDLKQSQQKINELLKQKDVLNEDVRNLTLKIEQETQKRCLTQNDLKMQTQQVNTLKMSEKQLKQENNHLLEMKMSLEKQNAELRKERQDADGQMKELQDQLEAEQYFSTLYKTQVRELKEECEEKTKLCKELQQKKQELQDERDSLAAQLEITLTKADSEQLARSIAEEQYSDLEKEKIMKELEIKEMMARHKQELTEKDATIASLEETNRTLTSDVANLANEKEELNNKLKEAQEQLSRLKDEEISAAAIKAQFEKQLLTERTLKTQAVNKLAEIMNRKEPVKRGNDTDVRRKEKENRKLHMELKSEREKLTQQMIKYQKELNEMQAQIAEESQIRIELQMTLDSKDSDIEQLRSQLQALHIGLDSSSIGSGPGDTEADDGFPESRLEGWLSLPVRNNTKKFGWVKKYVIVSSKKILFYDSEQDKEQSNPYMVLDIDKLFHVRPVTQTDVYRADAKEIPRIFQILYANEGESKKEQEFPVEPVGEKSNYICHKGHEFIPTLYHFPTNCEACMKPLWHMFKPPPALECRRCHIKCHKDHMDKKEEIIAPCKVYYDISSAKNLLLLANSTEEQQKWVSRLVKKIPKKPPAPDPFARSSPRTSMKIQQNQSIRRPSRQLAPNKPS

With `C[C@@H](N)[C@H]1CC[C@H](C(=O)Nc2ccncc2)CC1` [Y27632] the “TNF-induced CHR binding activity” value ([1]; nuclear extracts from EC co-treated with TNF and Y27632) was “significantly reduced”, the “TNF-mediated inhibition of cyclin A mRNA expression” value (cyclin A mRNA) was “reversed” and the “ezrin/TNF mediated inhibition of EC proliferation” value (EC proliferation; EC transfected with wtEzrin, treated with TNF, increasing doses of Y27632) was “dose dependently reversed”. For the same molecule, the “inhibitory effect of TNF on EC proliferation” value (EC proliferation; treatment of EC with Y27632 in the presence of TNF) was “partially abrogated”, the TNF-induced ezrin phosphorylation (ezrin phosphorylation) was “completely inhibited” and the “ROCK-2 induction by TNF” value (RhoA kinase (ROCK-2)) was “completely abolished”.

For `C[C@@H]1C[C@@H]([C@H](O)CC2CC(=O)NC(=O)C2)C(=O)[C@@H](C)C1` [cycloheximide], the “induction of 84-kDa protein by TNF” value (cyclin A CHR elements) was “failed to induce the protein”.

With “Recombinant ezrin: Recombinant human ezrin protein (GST-ezrin)” the “CHR-binding activity of ezrin-immunodepleted TNF-extract” value ([1]; recombinant ezrin added back to the depleted TNF-extract) was “significantly increased” and the “complex formation with CHR oligonucleotides” value [2] was “formed complex”.

B1: recombinant-DP1 protein: control recombinant-DP1 protein used in EMSA (protein, UniProt Q14186 1-410, looked up)
Transcription factor Dp-1: MAKDAGLIEANGELKVFIDQNLSPGKGVVSLVAVHPSTVNPLGKQLLPKTFGQSNVNIAQQVVIGTPQRPAASNTLVVGSPHTPSTHFASQNQPSDSSPWSAGKRNRKGEKNGKGLRHFSMKVCEKVQRKGTTSYNEVADELVAEFSAADNHILPNESAYDQKNIRRRVYDALNVLMAMNIISKEKKEIKWIGLPTNSAQECQNLEVERQRRLERIKQKQSQLQELILQQIAFKNLVQRNRHAEQQASRPPPPNSVIHLPFIIVNTSKKTVIDCSISNDKFEYLFNFDNTFEIHDDIEVLKRMGMACGLESGSCSAEDLKMARSLVPKALEPYVTEMAQGTVGGVFITTAGSTSNGTRFSASDLTNGADGMLATSSNGSQYSGSRVETPVSYVGEDDEEDDDFNENDEDD
For B1, the “complex formation with CHR oligonucleotides” value [2] was “did not form the complex”.
